Data as given in PMC4945070 (PLoS Neglected Tropical Diseases, 2016).
“And” between values parts separate entries of the source, which are not always exact repeats. Equal values may be shown once. “Also recorded” adds a separate entry of the source. Where a name gives a salt, the structure may show the parent alone. Read-outs that look alike come from different tables or passages of the source.

Key:
[1] = biological target: H. contortus L-AChR1.1 (UNC-63, UNC-38, ACR-8, UNC-29.1) (Haemonchus contortus, UniProt A9XX24+D6MYE9+D6MYF3+D6MYF4); assay: cell-based; parameters: Emax: dose or concentration left out as unconfirmed; conditions: for Max. Inhibition ± S.E.: inhibition of 100 μM ACh current
Experimental: (§1) The H. contortus cDNAs encoding AChR subunits and ancillary proteins were available as expression clones in the pTB207 vector and C. elegans expression clones were a gift from T. Boulin.. cRNA synthesis of each construct required NheI-linearized templates and was performed with the mMessage mMachine T7 Kit (Ambion) according to the manufacturer’s instructions. cRNAs were precipitated with lithium chloride and redissolved in RNAse-free water and stored at -80°C. cRNA concentration was determined using a Nanodrop spectrophotometer (Thermo Scientific) and cRNA purity and integrity was assessed by electrophoresis through a 1% gel stained with GreenGlo nucleic acid dye (Denville Scientific Inc.).
(§2) Oocytes were collected from mature Xenopus females according to standard procedures and incubated at 19°C in a ND96 solution (NaCl 96 mM, KCl 2 mM, CaCl2 1.8 mM, MgCl2 1 mM, and HEPES 5 mM, pH 7.3 supplemented with sodium pyruvate 2.5 mM). Defolliculated oocytes were injected into the animal pole with approximately 36 nL of a cRNA mix containing 50 ng/μL of each cRNA in RNAse-free water using the Nanoject system (Drummond Scientific, Broomall, PA). Negative controls consisted of oocytes injected with RNAse-free water. Oocytes were then stored at 19°C in ND96 for 5 days to allow receptor expression. In order to prevent activation of endogenous calcium-activated chloride channels, the oocytes were incubated in ND96 supplemented with 100 μM of the calcium chelator BAPTA-AM, 4h prior to recording.
(§3) Two-electrode voltage-clamp experiments were carried out using a perfusion system connected to a flat RC-1Z chamber (Harvard Apparatus). Glass electrodes were filled with 3M KCl and checked for resistance between 1 and 3 MΩ. The oocyte bath was connected to the ground through a 3 M KCl agar bridge. Agonist and antagonists were dissolved or diluted in recording solution (100 mM NaCl, 2.5 mM KCl, 1 mM CaCl2, 5 mM HEPES, pH 7.3). All measurements were performed using a Geneclamp 500B amplifier and Digidata 1322M (Axon Instruments), oocytes were voltage-clamped at -60 mV. Drug solutions were applied to oocytes by gravity flow using perfusion syringes directly connected to the chamber. Data were collected and analyzed using Clampex 9.2 and Clampfit 9.2 (Axon Instruments, Sunnyvale, CA, USA). Traces were filtered at 30 Hz and analyzed using GraphPad Prism 5.0 software (GraphPad Software, San Diego, CA, USA). Final results are presented as means ± SE.

[2] = biological target: H. contortus L-AChR1.3 (UNC-63, UNC-38, ACR-8, UNC-29.3) (Haemonchus contortus, UniProt A9XX24+D6MYF1+D6MYF3+D6MYF4); assay: cell-based; parameters: Emax: dose or concentration left out as unconfirmed; conditions: for Max Inhibition ± S.E.: inhibition of 100 μM ACh current
Experimental: as §1, §2, §3

[3] = biological target: H. contortus L-AChR1.4 (UNC-63, UNC-38, ACR-8, UNC-29.4) (Haemonchus contortus, UniProt A9XX24+D6MYF2+D6MYF3+D6MYF4); assay: cell-based; type: cell-based; parameters: Emax: dose or concentration left out as unconfirmed; conditions: for Emax at 100 µM: agonists at 100 μM, normalized to 100 μM acetylcholine
Experimental: as §1, §2, §3

[4] = test system: H. contortus L-AChR1.2 (UNC-63, UNC-38, ACR-8, UNC-29.2); type: cell-based, Haemonchus contortus; conditions: UNC-29.1 replaced by UNC-29.2; n = 18
Experimental: as §1, §2
(§4) Two-electrode voltage-clamp experiments were carried out using a perfusion system connected to a flat RC-1Z chamber (Harvard Apparatus). Glass electrodes were filled with 3M KCl and checked for resistance between 1 and 3 MΩ. The oocyte bath was connected to the ground through a 3 M KCl agar bridge. […] Data were collected and analyzed using Clampex 9.2 and Clampfit 9.2 (Axon Instruments, Sunnyvale, CA, USA). Traces were filtered at 30 Hz and analyzed using GraphPad Prism 5.0 software (GraphPad Software, San Diego, CA, USA). […]

[5] = biological target: H. contortus L-AChR1.1 with added UNC-29.2 (Haemonchus contortus, UniProt A9XX24+D6MYE9+D6MYF3+D6MYF4); assay: Two-electrode voltage clamp of L-AChR1.1 supplemented with unc-29.2 cRNA in Xenopus oocytes; type: cell-based
Description: Typically, such a situation can be identified by a change in the pharmacological properties of a receptor with addition of the second subunit. To address this, we examined the possibility that UNC-29.2 may interfere with or modify the properties of the reconstituted L-AChR1.1. We prepared oocytes injected with cRNAs to express the H. contortus L-AChR1.1 and supplemented this with an increasing (0.2, 1, 5 times) concentration of cRNA for UNC-29.2 relative to UNC-29.1.
as §1, §2, §3

[6] = test system: C. elegans L-AChR subunits (Cel-unc-63, Cel-unc-38, Cel-lev-8, Cel-lev-1) with Hco-unc-29 paralog; assay: Two-electrode voltage clamp of C. elegans / H. contortus AChR subunit admixtures in Xenopus oocytes; type: cell-based; conditions: each Hco-unc-29 paralog
Description: To confirm that the LEV sensitivity rescue could be due to the functional incorporation of parasite protein into the C. elegans L-AChR, we injected into Xenopus oocytes, cRNA admixtures of the four essential C. elegans L-AChR subunits: Cel-unc-63, Cel-unc-38, Cel-lev-8 and Cel-lev-1, the three H. contortus accessory proteins: ric-3, unc-50 and unc-74, and the Cel-unc-29 or each Hco-unc-29 paralog in turn. Reconstitution of the C. elegans L-AChR with Cel-unc-29 produced functional channels as previously described, confirming that the H. contortus accessory proteins are functional between species. Omitting unc-29 produced no response, so any current produced using parasite genes must involve their incorporation into a functional L-AChR. […] UNC-29.1 produced an average of 500 μA currents, while the other three produced reproducible currents below 200 nA with UNC-29.2 producing the smallest response on average (S1 Fig).
as §1, with “Inc.). […]” for “Inc.).”
as §4, with “Apparatus).” for “Apparatus). Glass electrodes were filled with 3M KCl and checked for resistance between 1 and 3 MΩ. The oocyte bath was connected to the ground through a 3 M KCl agar bridge.”

[7] = test system: C. elegans; conditions: 200 μM LEV
Experimental: The Cel-unc-29, unc-29.1, unc-29.2, unc-29.3, unc-29.4 cDNA sequences were amplified by PCR using primers containing restriction site inserted with restriction enzymes in the plasmid backbone (Addgene L2534) containing the myo-3 promoter. Strains used in these study were the wild-type Bristol isolate N2 and the LEV resistant isolate CB1072: unc-29 (e1072). Worms were grown on Escherichia coli OP50 seeded NGM (Nematode Growth Medium) plates at 20°C and maintained using standard culture methods. Hermaphrodite young adult C. elegans were transformed by microinjection of plasmids into the gonads. […] Successful transformation was determined by the observation of fluorescence of the selection marker in the two targeted neurones of the head region. Only worms carrying the selection marker were used for the behavioural and pharmacological analysis.
Three day old adult fluorescent worms were transferred onto unseeded NGM plates, equilibrated at 20°C, containing 200 μM LEV. Drug induced paralysis was determined by visual inspection every 15 min. Worms were defined as paralyzed if no movement was observed within five seconds after prodding the tail with a hair tip. Statistics. Experimental data are shown as mean ± S.D. Statistical comparisons between the unc-29 (e1072) mutant strain and the transformed lines were done using two-way ANOVA with Bonferroni’s multiple comparison post test. A level of p < 0.05 was considered significant.

[8] = L-AChR1.1, agonists at 100 μM, normalized to 100 μM acetylcholine, read-out: Max. Current ± S.E.
[9] = L-AChR1.3, agonists at 100 μM, normalized to 100 μM acetylcholine, read-out: Max. Current ± S.E.
[10] = L-AChR1.4, read-out: Max. Current ± S.E.
[11] = L-AChR1.1, dTC 100 μM, DHβE 10 μM, MECA 30 μM
[12] = L-AChR1.3, dTC 100 μM, DHβE 10 μM, MECA 30 μM
[13] = read-out: blocking of ACh elicited currents

C[N+](C)(CCOc1ccccc1)Cc1ccccc1 [Bephenium, bephenium hydroxynaphtoate]
Emax at 100 µM [1, 8]: 13.9 ± 1.7%
Emax at 100 µM [2, 9]: 9.59 ± 0.83%
Emax at 100 µM [3, 10]: 6.45 ± 0.84%

C[N+]1(C)CCN(c2ccccc2)CC1 [DMPP, 1,1-dimethyl-4-phenylpiperazinium iodide]
Emax at 100 µM [1, 8]: 42 ± 1.41%
Emax at 100 µM [2, 9]: 36.9 ± 3.93%
Emax at 100 µM [3, 10]: 31.6 ± 1%

Br.CO[C@H]1CC=C2CCN3CCC4=C(CC(=O)OC4)[C@]23C1 [DHßE, Dihydro-berythroidine hydrobromide]
blocking of ACh elicited currents ([1]; L-AChR1.1, dTC 100 μM, DHβE 10 μM, MECA 30 μM, 100 μM ACh): weak average inhibition
Max. Inhibition ± S.E. [1, 11]: 15.98 ± 2.16
blocking of ACh elicited currents ([2]; L-AChR1.3, dTC 100 μM, DHβE 10 μM, MECA 30 μM, 100 μM ACh): weak average inhibition
Max Inhibition ± S.E. [2, 12]: 23.55 ± 1.94
blocking of ACh elicited currents ([3]; L-AChR1.4, dTC 100 μM, DHβE 10 μM, MECA 30 μM, 100 μM ACh): weak average inhibition
Max Inhibition ± S.E. ([3]; L-AChR1.4, inhibition of 100 μM ACh current, dTC 100 μM, DHβE 10 μM, MECA 30 μM): 16.51 ± 5.73

c1ccc([C@H]2CN3CCSC3=N2)cc1 [LEV, (-)-tetramisole hydrochloride]
Hill [1]: 0.84 ± 0.05
Relative response (LEV versus ACh) [1]: superagonist; also recorded: LEV > ACh
EC50 ([1]; EC50): 4.9 µM and 4.91 µM
Emax at 100 µM ([1]; read-out: LEV current, % of ACh response): 125%
Emax ([1]; read-out: Max. Current ± S.E.): 125 ± 3.76%
EC50 [2]: 1.15 ± 0.08 µM
Hill [2]: 1.13 ± 0.09
Relative response (LEV versus ACh) [2]: partial agonist; also recorded: LEV < ACh
Emax at 100 µM ([2]; read-out: LEV current, % of the ACh current): 65.2 ± 9.9%
Emax ([2]; read-out: Max. Current ± S.E.): 65.2 ± 3.5%
EC50 [3]: 2.48 ± 0.35 µM
Hill [3]: 0.90 ± 0.12
Relative response (LEV versus ACh) [3]: LEV = ACh
Emax ([3]; read-out: Max. Current ± S.E.): 94.7 ± 2.93%
current in response to 100 μM perfusion [4]: failed to produce any detectable current
effect of unc-29.2 cRNA on the pharmacological response ([5]; 0.2, 1, 5 times unc-29.2 cRNA relative to UNC-29.1): no effect
EC50 ([5]; 29.1 : 29.2 cRNA 1 : 0.2): 3.05 ± 0.44 µM
Hill ([5]; 29.1 : 29.2 cRNA 1 : 0.2): 0.69 ± 0.09
EC50 ([5]; 29.1 : 29.2 cRNA 1 : 1): 2.41 ± 0.08 µM
Hill ([5]; 29.1 : 29.2 cRNA 1 : 1): 0.71 ± 0.13
EC50 ([5]; 29.1 : 29.2 cRNA 1 : 5): 3.7 ± 0.35 µM
Hill ([5]; 29.1 : 29.2 cRNA 1 : 5): 0.77 ± 0.13
current on perfusion of 100 μM LEV relative to the ACh response [6]: comparable between subunit copies
paralysis on exposure to LEV ([7]; mutant unc-29(e1072) (CB1072), two hours): barely affected
paralysis on exposure to LEV ([7]; unc-29(e1072) transfected with Cel-unc-29): complete rescue of LEV sensitivity
paralysis on exposure to LEV ([7]; unc-29(e1072) transfected with each of the four H. contortus unc-29 copies): paralyzed after two hours
paralysis on exposure to LEV ([7]; wild-type N2 worms): rapid paralysis that was complete after an hour

CNC1(C)C2CCC(C2)C1(C)C (centres unmarked) [Mecamylamine, mecamylamine hydrochloride]
MECA inhibition (summary) ([1]; L-AChR1.1): Full Inhibition
Max. Inhibition ± S.E. [1, 11]: 99.91 ± 0.09
inhibition at 30 µM [1, 13]: 99.9 ± 0.1%
MECA inhibition (summary) ([2]; L-AChR1.3): Partial Inhibition
Max Inhibition ± S.E. [2, 12]: 56.87 ± 3.18
inhibition at 30 µM [2, 13]: 56.9 ± 3.2%
MECA inhibition (summary) ([3]; L-AChR1.4): Full Inhibition
inhibition at 30 µM [3, 13]: 96.4 ± 1.9%
